Literature values, collected in patent US11331424B2, “Apparatus, systems and methods for delivery of medication to the brain to treat neurological conditions” (InCube Labs, LLC, priority 2009, dated 2022).
Read-outs that look alike come from different tables or passages of the source.

Experiments:
[1] = test system: evoked and spontaneous epileptic neural activity; conditions: human patients
[2] = test system: evoked and spontaneous epileptic neural activity; conditions: epileptic animal models
[3] = oral administration
[4] = many patients; significant = more than about 10% increase in urine production or more than about 5% decrease in plasma electrolyte

time to get into the patient's blood stream [3]: ≥ 30 min
threshold dosage which produces a significant increase in diuresis and/or significant decrease in the patient's electrolyte level(s) [4]: about 20 mg
SMILES: NS(=O)(=O)c1cc(C(=O)O)c(NCc2ccco2)cc1Cl [Furosemide]
effect on evoked and spontaneous epileptic neural activity and subsequent cortical spreading depression [1]: block evoked and spontaneous epileptic neural activity and subsequent cortical spreading depression
effect on evoked and spontaneous epileptic neural activity and subsequent cortical spreading depression [2]: block evoked and spontaneous epileptic neural activity and subsequent cortical spreading depression
